Data as given in ChEMBL document CHEMBL1201862, “PubChem BioAssay data set” (2004).
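Following 48 hours of exposure in 96-well plates, responses at five concentrations were used to interpolate endpoints linearly. GI50 = concentration required for 50% inhibition of growth.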 Calls of active or inactive are those of the source. No stated cut-off is given here; in the data, active = GI50 up to about 1.1 µM and inactive = higher.

What was measured:
Experiment in all cases: inhibition of tumour cell growth, NCI panel, 48 h
KM12 = test system: KM12
SK-MEL-2 = test system: SK-MEL-2
SW-620 = test system: SW-620
K562 = test system: K562
U-251 = test system: U-251
SNB-19 = test system: SNB-19
HOP-92 = test system: HOP-92
HCT-15 = test system: HCT-15
COLO 205 = test system: COLO 205
UACC-62 = test system: UACC-62
EKVX = test system: EKVX
PC-3 = test system: PC-3
SR = test system: SR
MDA-N = test system: MDA-N
SF-539 = test system: SF-539
HCC 2998 = test system: HCC 2998
ACHN = test system: ACHN
SK-MEL-28 = test system: SK-MEL-28
MCF7 = test system: MCF7
MDA-MB-231 = test system: MDA-MB-231
TK-10 = test system: TK-10
SF-295 = test system: SF-295
CCRF-CEM = test system: CCRF-CEM
IGROV-1 = test system: IGROV-1
SN12C = test system: SN12C
Hs-578T = test system: Hs-578T
DU-145 = test system: DU-145
LOX IMVI = test system: LOX IMVI
HCT-116 = test system: HCT-116
UACC-257 = test system: UACC-257
NCI-H460 = test system: NCI-H460
OVCAR-4 = test system: OVCAR-4
OVCAR-8 = test system: OVCAR-8
OVCAR-5 = test system: OVCAR-5
UO-31 = test system: UO-31
M14 = test system: M14
HOP-62 = test system: HOP-62
BT-549 = test system: BT-549
HL-60 = test system: HL-60
786-0 = test system: 786-0
NCI/ADR-RES = test system: NCI/ADR-RES
SNB-75 = test system: SNB-75
T47D = test system: T47D
RPMI-8226 = test system: RPMI-8226
CAKI-1 = test system: CAKI-1
SK-MEL-5 = test system: SK-MEL-5
MDA-MB-435 = test system: MDA-MB-435
SK-OV-3 = test system: SK-OV-3
HT-29 = test system: HT-29
OVCAR-3 = test system: OVCAR-3
SF-268 = test system: SF-268
A549 = test system: A549
A498 = test system: A498
MOLT-4 = test system: MOLT-4
NCI-H226 = test system: NCI-H226
Malme-3M = test system: Malme-3M
RXF 393 = test system: RXF 393
NCI-H23 = test system: NCI-H23
NCI-H522 = test system: NCI-H522

`Cc1ccc2nc(Cl)c(/C=N/N3C(=O)/C(=C/c4ccc(N(C)C)cc4)N=C3c3ccccc3)cc2c1` was tested, and the GI50 (KM12) was 40.7 µM (inactive), the GI50 (SK-MEL-2) was 21.9 µM (inactive) and the GI50 (SW-620) was 57.8 µM (inactive). The GI50 (K562) was 59.4 µM (inactive), the GI50 (U-251) was 26 µM (inactive) and the GI50 (SNB-19) was > 100 µM (inactive). The GI50 (HOP-92) was 71.3 µM (inactive), the GI50 (HCT-15) was 55.2 µM and the GI50 (COLO 205) was 51.1 µM (inactive). The GI50 (UACC-62) was 43.4 µM (inactive), the GI50 (EKVX) was 80.9 µM (inactive) and the GI50 (PC-3) was 47.6 µM (inactive). The GI50 (SR) was 32.6 µM (inactive), the GI50 (MDA-N) was 29.1 µM (inactive) and the GI50 (SF-539) was 18.2 µM (inactive). For the same molecule, the GI50 (HCC 2998) was 66.2 µM (inactive), the GI50 (ACHN) was 76.9 µM (inactive) and the GI50 (SK-MEL-28) was > 100 µM (inactive). For the same molecule, the GI50 (MCF7) was 29 µM (inactive), the GI50 (MDA-MB-231) was 38.9 µM (inactive) and the GI50 (TK-10) was > 100 µM (inactive). The GI50 (SF-295) was 29.9 µM (inactive), the GI50 (CCRF-CEM) was 29.9 µM (inactive) and the GI50 (IGROV-1) was 29 µM (inactive). The GI50 (SN12C) was 80.7 µM (inactive), the GI50 (Hs-578T) was 40.1 µM (inactive) and the GI50 (DU-145) was 80 µM (inactive). The GI50 (LOX IMVI) was 31.5 µM (inactive), the GI50 (HCT-116) was 39.4 µM (inactive) and the GI50 (UACC-257) was 80.2 µM (inactive). For the same molecule, the GI50 (NCI-H460) was 37.5 µM (inactive), the GI50 (OVCAR-4) was 70 µM (inactive) and the GI50 (OVCAR-8) was 41.8 µM (inactive). For the same molecule, the GI50 (OVCAR-5) was > 100 µM (inactive), the GI50 (UO-31) was 37 µM (inactive) and the GI50 (M14) was 47.8 µM (inactive). For the same molecule, the GI50 (HOP-62) was 42.8 µM (inactive), the GI50 (BT-549) was > 100 µM (inactive) and the GI50 (HL-60) was 32.4 µM (inactive). For the same molecule, the GI50 (786-0) was > 100 µM (inactive), the GI50 (NCI/ADR-RES) was 32.7 µM (inactive) and the GI50 (SNB-75) was 24 µM (inactive). For the same molecule, the GI50 (T47D) was 43.4 µM (inactive), the GI50 (RPMI-8226) was 23.7 µM (inactive) and the GI50 (CAKI-1) was > 100 µM (inactive). For the same molecule, the GI50 (SK-MEL-5) was 48.5 µM (inactive), the GI50 (MDA-MB-435) was 22.1 µM (inactive) and the GI50 (SK-OV-3) was > 100 µM (inactive). The GI50 (HT-29) was 63.7 µM (inactive), the GI50 (OVCAR-3) was 13.9 µM (inactive) and the GI50 (SF-268) was 37.2 µM (inactive). For the same molecule, the GI50 (A549) was 37.8 µM (inactive), the GI50 (A498) was 43.8 µM (inactive) and the GI50 (MOLT-4) was 24.4 µM (inactive).

In the case of `Cc1ccc(/N=N/NCCCCN/N=N/c2ccc(C)cc2)cc1`, the GI50 (NCI-H226) was > 100 µM (inactive), the GI50 (SK-MEL-2) was > 100 µM (inactive) and the GI50 (SW-620) was > 100 µM (inactive). The GI50 (Malme-3M) was > 100 µM (inactive), the GI50 (K562) was > 100 µM (inactive) and the GI50 (U-251) was > 100 µM (inactive). The GI50 (HOP-92) was 25.3 µM (inactive), the GI50 (RXF 393) was > 100 µM (inactive) and the GI50 (HCT-15) was 4.93 µM. For the same molecule, the GI50 (COLO 205) was 35.4 µM (inactive), the GI50 (UACC-62) was > 100 µM (inactive) and the GI50 (EKVX) was > 100 µM (inactive). The GI50 (PC-3) was 4.22 µM (inactive), the GI50 (SR) was 17.5 µM (inactive) and the GI50 (MDA-N) was 16.5 µM (inactive). The GI50 (SF-539) was > 100 µM (inactive), the GI50 (HCC 2998) was 13.9 µM (inactive) and the GI50 (SK-MEL-28) was > 100 µM (inactive). The GI50 (MCF7) was 78.3 µM (inactive), the GI50 (MDA-MB-231) was > 100 µM (inactive) and the GI50 (TK-10) was 1.65 µM (inactive). The GI50 (SF-295) was 8.22 µM (inactive), the GI50 (CCRF-CEM) was 1 µM (active) and the GI50 (IGROV-1) was 12.5 µM (inactive). The GI50 (SN12C) was > 100 µM (inactive), the GI50 (Hs-578T) was > 100 µM (inactive) and the GI50 (DU-145) was 32 µM (inactive). For the same molecule, the GI50 (LOX IMVI) was 1.17 µM (inactive), the GI50 (HCT-116) was 65.8 µM (inactive) and the GI50 (UACC-257) was > 100 µM (inactive). The GI50 (NCI-H460) was 12.5 µM (inactive), the GI50 (OVCAR-4) was > 100 µM (inactive) and the GI50 (OVCAR-8) was 27.4 µM (inactive). For the same molecule, the GI50 (OVCAR-5) was > 100 µM (inactive), the GI50 (UO-31) was 0.196 µM (active) and the GI50 (M14) was 8.05 µM (inactive). For the same molecule, the GI50 (HOP-62) was 47.9 µM (inactive), the GI50 (BT-549) was > 100 µM (inactive) and the GI50 (HL-60) was 1.75 µM (inactive). The GI50 (NCI/ADR-RES) was > 100 µM (inactive), the GI50 (SNB-75) was > 100 µM (inactive) and the GI50 (T47D) was 11.5 µM (inactive). The GI50 (CAKI-1) was > 100 µM (inactive), the GI50 (SK-MEL-5) was 23.4 µM (inactive) and the GI50 (NCI-H23) was 9.25 µM (inactive). The GI50 (MDA-MB-435) was 11.8 µM (inactive), the GI50 (SK-OV-3) was > 100 µM (inactive) and the GI50 (HT-29) was > 100 µM (inactive). For the same molecule, the GI50 (OVCAR-3) was > 100 µM (inactive), the GI50 (SF-268) was 96.8 µM (inactive) and the GI50 (A549) was 6.04 µM (inactive). The GI50 (A498) was 54.6 µM (inactive) and the GI50 (MOLT-4) was 14.2 µM (inactive).

`CC(C)(C)C(=O)C(N)C(=O)C(C)(C)C` was tested, and the GI50 (KM12) was > 100 µM (inactive), the GI50 (SK-MEL-2) was > 100 µM (inactive) and the GI50 (SW-620) was > 100 µM (inactive). For the same molecule, the GI50 (Malme-3M) was > 100 µM (inactive), the GI50 (K562) was > 100 µM (inactive) and the GI50 (U-251) was > 100 µM (inactive). For the same molecule, the GI50 (SNB-19) was > 100 µM (inactive), the GI50 (HOP-92) was > 100 µM (inactive) and the GI50 (RXF 393) was > 100 µM (inactive). The GI50 (HCT-15) was > 100 µM, the GI50 (COLO 205) was > 100 µM (inactive) and the GI50 (UACC-62) was > 100 µM (inactive). For the same molecule, the GI50 (PC-3) was > 100 µM (inactive), the GI50 (SR) was > 100 µM (inactive) and the GI50 (MDA-N) was > 100 µM (inactive). For the same molecule, the GI50 (SF-539) was > 100 µM (inactive), the GI50 (HCC 2998) was > 100 µM (inactive) and the GI50 (ACHN) was > 100 µM (inactive). For the same molecule, the GI50 (NCI-H522) was > 100 µM (inactive), the GI50 (SK-MEL-28) was > 100 µM (inactive) and the GI50 (MCF7) was > 100 µM (inactive). For the same molecule, the GI50 (MDA-MB-231) was > 100 µM (inactive), the GI50 (TK-10) was > 100 µM (inactive) and the GI50 (SF-295) was > 100 µM (inactive). For the same molecule, the GI50 (CCRF-CEM) was > 100 µM (inactive), the GI50 (SN12C) was > 100 µM (inactive) and the GI50 (Hs-578T) was > 100 µM (inactive). The GI50 (DU-145) was > 100 µM (inactive), the GI50 (LOX IMVI) was > 100 µM (inactive) and the GI50 (HCT-116) was > 100 µM (inactive). For the same molecule, the GI50 (UACC-257) was > 100 µM (inactive), the GI50 (NCI-H460) was > 100 µM (inactive) and the GI50 (OVCAR-4) was > 100 µM (inactive). The GI50 (OVCAR-8) was > 100 µM (inactive), the GI50 (OVCAR-5) was > 100 µM (inactive) and the GI50 (UO-31) was > 100 µM (inactive). The GI50 (M14) was > 100 µM (inactive), the GI50 (HOP-62) was > 100 µM (inactive) and the GI50 (BT-549) was > 100 µM (inactive). For the same molecule, the GI50 (HL-60) was > 100 µM (inactive), the GI50 (786-0) was > 100 µM (inactive) and the GI50 (NCI/ADR-RES) was > 100 µM (inactive). For the same molecule, the GI50 (SNB-75) was > 100 µM (inactive), the GI50 (T47D) was > 100 µM (inactive) and the GI50 (RPMI-8226) was > 100 µM (inactive). For the same molecule, the GI50 (CAKI-1) was > 100 µM (inactive), the GI50 (SK-MEL-5) was > 100 µM (inactive) and the GI50 (MDA-MB-435) was > 100 µM (inactive). The GI50 (SK-OV-3) was > 100 µM (inactive), the GI50 (SF-268) was > 100 µM (inactive) and the GI50 (A549) was > 100 µM (inactive). For the same molecule, the GI50 (MOLT-4) was 9.57 µM (inactive).
